Data from PubChem BioAssay (NCI).
Several values for one entry are separate records, joined by “and”; a condition that tells them apart may be missing. Equal entries are not always repeated.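 Following 48 hours of exposure in 96-well plates, responses at five concentrations were used to interpolate endpoints linearly. Here, GI50 denotes the concentration required for 50% inhibition of growth. Definition used: TGI = concentration required for complete inhibition of growth.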

Key:
Assay in all cases: growth of human tumour cells (NCI), 48 h
A498 renal = tested on: A498 renal
HCT-15 colon = tested on: HCT-15 colon
PC-3 prostate = tested on: PC-3 prostate
SK-MEL-2 melanoma = tested on: SK-MEL-2 melanoma
SK-MEL-28 melanoma = tested on: SK-MEL-28 melanoma
SK-MEL-5 melanoma = tested on: SK-MEL-5 melanoma
SN12C renal = tested on: SN12C renal
T-47D breast = tested on: T-47D breast
TK-10 renal = tested on: TK-10 renal
UACC-257 melanoma = tested on: UACC-257 melanoma

Row | Compound | TGI (A498 renal) | TGI (HCT-15 colon) | TGI (PC-3 prostate) | TGI (SK-MEL-2 melanoma) | TGI (SK-MEL-28 melanoma) | TGI (SK-MEL-5 melanoma) | TGI (SN12C renal) | TGI (T-47D breast) | TGI (TK-10 renal) | TGI (UACC-257 melanoma) | GI50 (A498 renal) | GI50 (HCT-15 colon) | GI50 (PC-3 prostate) | GI50 (SK-MEL-2 melanoma) | GI50 (SK-MEL-28 melanoma) | GI50 (SK-MEL-5 melanoma) | GI50 (SN12C renal) | GI50 (T-47D breast) | GI50 (TK-10 renal) | GI50 (UACC-257 melanoma)
1 | Clc1ccc(NCNC2Nc3ccccc3N2)cc1Cl | > 100 µM | > 100 µM | > 100 µM | 79.6 µM | > 100 µM | 54.6 µM | > 100 µM | > 100 µM | > 100 µM | > 100 µM | – | – | – | – | – | – | – | – | – | –
2 | COc1cc(-c2csc(NC(=O)Nc3ccc(Cl)cc3)n2)cc(OC)c1OC | 8.03 µM | > 40.9 µM | 8.39 µM | 5.04 µM | 7.12 µM | 5.2 µM | 13.7 µM | 6.29 µM | 14.9 µM | 6.03 µM | 2.24 µM | 2.9 µM | 2.4 µM | 2.18 µM | 2.44 µM | 2.2 µM | 3.18 µM | 1.91 µM | 3.25 µM | 2.48 µM
3 | N#CSc1c[nH]c2ccc(/C=C/C(=O)/C=C(O)/C=C/c3ccc4[nH]cc(SC#N)c4c3)cc12 | 55.4 µM | 2.11 µM | 2.03 µM | 12.3 µM | 5.76 µM | 3.48 µM | 10.9 µM | 8.82 µM | 23.8 µM | 12.5 µM | 7.61 µM | 0.416 µM | 0.343 µM | 3.23 µM | 2 µM | 1.52 µM | 1.92 µM | 1.97 µM | 3.35 µM | 2.79 µM
4 | COc1ccc(-c2cc(=O)c3c(C)ccnc3[nH]2)cc1 | 41.4 µM | > 100 µM | > 100 µM | 28.1 µM | > 100 µM | 14.7 µM | > 100 µM | > 100 µM | > 100 µM | > 100 µM | – | – | 18.1 µM | – | – | 3.87 µM | – | – | – | –
5 | CCN(Cc1ccccc1)c1ccc(/C=C2\COc3ccccc3C2=O)cc1 | > 1000 µM | > 1000 µM | > 1000 µM | > 1000 µM | > 1000 µM | > 1000 µM | > 1000 µM | > 1000 µM | > 1000 µM | > 1000 µM | > 1000 µM | 106 µM | 343 µM | > 1000 µM | > 1000 µM | 398 µM | > 1000 µM | 213 µM | > 1000 µM | > 1000 µM
6 | CCCCCOC(=O)c1c(C)[nH]c(/C=C2\N=C(c3ccc[nH]3)C=C2OC)c1C | 1.02 µM | 1.4 µM | 3.27 µM | 0.0681 µM | 1.25 µM | 0.0726 µM | 1.73 µM | 1.37 µM | 1.72 µM | 1.28 µM | 0.124 µM | 0.0264 µM | 0.0212 µM | 0.0222 µM | 0.129 µM | 0.0234 µM | 0.0482 µM | 0.0369 µM | 0.047 µM | 0.0953 µM
7 | CN1CCN(c2cc(F)c(NC3=C(Cl)C(=O)c4ncccc4C3=O)c(F)c2)CC1 | 23.7 µM | 3.06 µM | 3.74 µM | 3.6 µM | 3.36 µM | 3.13 µM | 3.29 µM | 4.61 µM | 3.32 µM | 2.78 µM | 10.9 µM | 1.53 µM | 1.6 µM | 1.77 µM | 1.88 µM | 1.66 µM | 1.7 µM | 1.82 µM | 1.81 µM | 1.43 µM
8 | Cc1cc(NC(=O)NCCCOc2ccc(N3C(N)=NC(N)=NC3(C)C)cc2Cl)ccc1S(=O)(=O)F | 99.9 µM | > 100 µM | 44 µM | 65.9 µM | 28.5 µM | 11.1 µM | > 100 µM | 61.9 µM | > 100 µM | 30.9 µM | 7.94 µM | 39.2 µM | 0.376 µM | 2.43 µM | 1.93 µM | 0.492 µM | 0.558 µM | 4.82 µM | 3.11 µM | 4.09 µM
9 | Oc1ccc(CCNc2nc3ccccc3c3[nH]c4ccccc4c23)cc1O | 26.5 µM | 3.95 µM | 3.63 µM | 3.59 µM | 18.3 µM | 11.5 µM | 7.29 µM | 32.2 µM | 19 µM | 40.2 µM | 13.6 µM | 1.9 µM | 1.51 µM | 1.73 µM | 5.85 µM | 3.2 µM | 1.94 µM | 14.2 µM | 5.37 µM | 25.5 µM
10 | COc1ccc(CC(C)NCC(O)c2ccc(O)c(NC=O)c2)cc1 (configuration not stated) | > 100 µM | > 100 µM | > 100 µM | > 100 µM | > 100 µM | > 100 µM | > 100 µM | > 100 µM | > 100 µM | > 100 µM | – | – | – | – | – | – | – | – | – | –
11 | CC[C@@H]1C(=O)N(C)c2cnc(Nc3ccc(C(=O)NC4CCC(N5CCN(CC6CC6)CC5)CC4)cc3OC)nc2N1C(C)C (some centres not stated) | 0.236 µM and 0.252 µM | > 6.64 µM and 5.33 µM | > 10 µM and 17.7 µM | 1.97 µM and 2.27 µM | 2.64 µM and 3.16 µM | 0.517 µM and 0.654 µM | > 10 µM and 15.1 µM | > 10 µM and 21.9 µM | > 10 µM and 8.62 µM | > 5.86 µM and 1.75 µM | 0.0284 µM and 0.0338 µM | 0.0686 µM and 0.145 µM | 0.0287 µM and 0.0366 µM | 0.0221 µM and 0.0351 µM | 0.0737 µM and 0.0669 µM | 0.0409 µM and 0.0472 µM | 0.0917 µM and 0.173 µM | 0.155 µM and 0.113 µM | 0.128 µM and 0.0776 µM | 0.22 µM and 0.046 µM
12 | O=C(O)C1CCCN1 (configuration not stated) | > 100 µM | > 100 µM | > 100 µM | > 100 µM | > 100 µM | > 100 µM | > 100 µM | > 100 µM | > 100 µM | > 100 µM | – | – | – | – | – | – | – | – | – | –
13 | C=CC(=O)N1CCN([C@@H](CC2CC2)c2ccc([C@H](C)Nc3ncc4c(n3)N(CC)C(=O)OC4)cc2)CC1 | 23.6 µM | 25.5 µM | 31.4 µM | 27.4 µM | 30.5 µM | 30 µM | 31.8 µM | 61.3 µM | 23.1 µM | 25.5 µM | 11.2 µM | 10.3 µM | 12 µM | 12.6 µM | 16.6 µM | 15.4 µM | 13.7 µM | 14.8 µM | 9.02 µM | 10.9 µM
